For orientation: IC50 means the concentration at which inhibition is half-maximal. Higher therefore signals weaker potency in that assay.

Format in all cases: cell-based
Experiment [1] has as its target T1, human TLR7 (Homo sapiens, UniProt Q9NYK1).
T1 construct: host or cells: HEK-Blue cells
T1 sequence (Q9NYK1 27-1049): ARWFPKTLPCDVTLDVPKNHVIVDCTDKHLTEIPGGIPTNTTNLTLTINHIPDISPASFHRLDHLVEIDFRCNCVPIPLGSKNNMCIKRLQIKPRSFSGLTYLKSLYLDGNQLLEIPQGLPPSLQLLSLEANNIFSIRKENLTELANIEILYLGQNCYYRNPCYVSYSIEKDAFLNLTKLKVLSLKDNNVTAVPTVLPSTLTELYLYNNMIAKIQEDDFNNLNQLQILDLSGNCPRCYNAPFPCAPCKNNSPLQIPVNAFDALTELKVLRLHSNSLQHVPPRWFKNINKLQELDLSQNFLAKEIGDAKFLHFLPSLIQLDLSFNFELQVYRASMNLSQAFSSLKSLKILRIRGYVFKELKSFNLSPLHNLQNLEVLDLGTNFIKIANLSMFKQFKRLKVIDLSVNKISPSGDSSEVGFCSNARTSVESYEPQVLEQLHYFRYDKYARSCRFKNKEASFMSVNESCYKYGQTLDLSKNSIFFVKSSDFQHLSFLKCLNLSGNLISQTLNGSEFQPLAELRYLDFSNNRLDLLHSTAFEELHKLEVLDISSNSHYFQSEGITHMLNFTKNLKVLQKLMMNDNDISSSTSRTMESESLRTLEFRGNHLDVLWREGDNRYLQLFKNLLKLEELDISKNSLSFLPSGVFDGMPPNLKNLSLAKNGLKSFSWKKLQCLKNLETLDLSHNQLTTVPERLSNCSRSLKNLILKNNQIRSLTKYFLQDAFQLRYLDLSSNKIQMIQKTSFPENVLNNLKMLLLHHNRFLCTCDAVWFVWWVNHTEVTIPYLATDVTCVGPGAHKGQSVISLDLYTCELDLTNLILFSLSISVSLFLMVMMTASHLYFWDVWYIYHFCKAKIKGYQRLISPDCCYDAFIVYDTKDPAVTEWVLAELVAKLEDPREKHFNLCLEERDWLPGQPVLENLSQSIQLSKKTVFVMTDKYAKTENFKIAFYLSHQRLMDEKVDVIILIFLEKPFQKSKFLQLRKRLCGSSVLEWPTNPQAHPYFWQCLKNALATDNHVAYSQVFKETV
Briefly: TLR7 inhibition reporter assay (HEK-Blue SEAP reporter, gardiquimod stimulation). To be noted: HEK-Blue cells overexpressing human TLR7, SEAP reporter, gardiquimod 7.5 μM, 22 hour incubation. A digest of the protocol: (§1)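 Screening used HEK-Blue cells overexpressing one human TLR (7, 8 or 9) and an IFN-β minimal promoter–NF-κB/AP-1 SEAP construct. Stimulation lasted 22 h at 37 °C with receptor-specific agonist: gardiquimod, R848 or ODN2006 at 7.5 μM, 15.9 μM and 5 nM.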

The target in experiment [2] is T2, human TLR8 (Homo sapiens, UniProt Q9NR97).
T2 construct: host or cells: HEK-Blue cells
T2 sequence (Q9NR97 27-1041): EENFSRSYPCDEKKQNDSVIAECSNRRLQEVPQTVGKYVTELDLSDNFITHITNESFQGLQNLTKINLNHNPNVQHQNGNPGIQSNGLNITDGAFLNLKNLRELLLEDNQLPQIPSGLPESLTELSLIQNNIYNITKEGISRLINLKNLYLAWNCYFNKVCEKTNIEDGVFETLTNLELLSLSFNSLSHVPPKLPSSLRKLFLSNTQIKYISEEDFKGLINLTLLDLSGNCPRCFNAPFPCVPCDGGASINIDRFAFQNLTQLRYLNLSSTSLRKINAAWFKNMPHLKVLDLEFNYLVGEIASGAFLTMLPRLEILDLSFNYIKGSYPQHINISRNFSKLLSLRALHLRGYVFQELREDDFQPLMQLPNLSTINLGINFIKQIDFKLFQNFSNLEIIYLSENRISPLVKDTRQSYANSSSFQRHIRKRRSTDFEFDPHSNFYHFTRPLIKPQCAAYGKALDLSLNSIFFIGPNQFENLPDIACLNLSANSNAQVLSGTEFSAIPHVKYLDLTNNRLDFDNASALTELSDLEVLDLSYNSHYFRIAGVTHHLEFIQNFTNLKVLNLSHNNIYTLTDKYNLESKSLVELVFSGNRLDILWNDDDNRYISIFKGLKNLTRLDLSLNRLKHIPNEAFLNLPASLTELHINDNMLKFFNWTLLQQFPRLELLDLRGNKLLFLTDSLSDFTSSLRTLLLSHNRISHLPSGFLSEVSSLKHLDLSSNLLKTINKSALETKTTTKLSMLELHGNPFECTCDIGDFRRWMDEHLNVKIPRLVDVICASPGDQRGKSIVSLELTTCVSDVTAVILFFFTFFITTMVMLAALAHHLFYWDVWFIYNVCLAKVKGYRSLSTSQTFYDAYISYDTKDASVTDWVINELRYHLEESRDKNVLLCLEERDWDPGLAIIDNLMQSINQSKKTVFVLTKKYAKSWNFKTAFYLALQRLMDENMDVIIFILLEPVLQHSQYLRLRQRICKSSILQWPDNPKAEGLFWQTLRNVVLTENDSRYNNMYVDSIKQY
Briefly: TLR8 inhibition reporter assay (HEK-Blue SEAP reporter, R848 stimulation). Conditions: HEK-Blue cells overexpressing human TLR8, SEAP reporter, R848 15.9 μM, 22 hour incubation. In short, it runs like this:
as §1

In experiment [3] the target is T3, human TLR9 (Homo sapiens, UniProt Q9NR96).
T3 construct: host or cells: HEK-Blue cells
T3 sequence (Q9NR96 26-1032): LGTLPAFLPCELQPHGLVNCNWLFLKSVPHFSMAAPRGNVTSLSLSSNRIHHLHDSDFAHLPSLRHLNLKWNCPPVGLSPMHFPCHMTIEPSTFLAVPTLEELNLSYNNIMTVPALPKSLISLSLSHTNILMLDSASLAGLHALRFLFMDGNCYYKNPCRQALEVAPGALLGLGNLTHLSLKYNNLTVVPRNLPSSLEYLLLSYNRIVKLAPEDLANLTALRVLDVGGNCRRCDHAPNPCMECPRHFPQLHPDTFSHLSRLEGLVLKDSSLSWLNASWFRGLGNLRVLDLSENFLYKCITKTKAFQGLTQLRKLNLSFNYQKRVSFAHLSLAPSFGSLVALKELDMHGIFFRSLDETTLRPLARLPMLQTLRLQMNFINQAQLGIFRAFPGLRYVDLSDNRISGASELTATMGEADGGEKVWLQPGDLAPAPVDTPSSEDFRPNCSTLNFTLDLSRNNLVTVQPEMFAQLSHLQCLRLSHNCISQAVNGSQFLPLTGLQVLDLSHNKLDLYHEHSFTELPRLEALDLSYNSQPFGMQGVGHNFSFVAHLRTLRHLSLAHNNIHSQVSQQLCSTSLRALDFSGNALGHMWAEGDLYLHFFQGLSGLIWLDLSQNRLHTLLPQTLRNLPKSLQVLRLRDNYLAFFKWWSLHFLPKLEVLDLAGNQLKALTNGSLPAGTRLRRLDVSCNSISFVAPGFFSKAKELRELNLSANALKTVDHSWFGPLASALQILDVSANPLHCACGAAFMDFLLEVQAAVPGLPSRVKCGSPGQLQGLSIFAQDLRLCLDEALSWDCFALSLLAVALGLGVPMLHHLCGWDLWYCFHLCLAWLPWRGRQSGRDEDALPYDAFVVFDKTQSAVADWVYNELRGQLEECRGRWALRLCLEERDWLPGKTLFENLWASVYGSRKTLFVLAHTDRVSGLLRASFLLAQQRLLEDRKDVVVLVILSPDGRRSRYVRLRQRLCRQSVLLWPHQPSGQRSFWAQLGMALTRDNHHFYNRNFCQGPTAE
Briefly: TLR9 inhibition reporter assay (HEK-Blue SEAP reporter, ODN2006 stimulation). To be noted: HEK-Blue cells overexpressing human TLR9, SEAP reporter, ODN2006 5 nM, 22 hour incubation. A digest of the protocol: as §1
For orientation: In a reporter assay the amount or activity of a reporter protein is the signal.

`CN[C@H](C)C(=O)N1CCC(c2ccc3[nH]c(-c4cc(C)c(=O)n(C)c4)c(C(C)C)c3c2)CC1` [Example 299, 5-(3-isopropyl-5-(1-(methyl-D-alanyl)piperidin-4-yl)-1H-indol-2-yl)-1,3-dimethylpyridin-2(1H)-one]: the IC50 in experiment [1] is 3.7 nM; in experiment [2] it was 4.3 nM; in experiment [3], 504 nM.

With `COCCN1CCC(c2ccc3[nH]c(-c4cc(-c5ccc(C)nc5)c(=O)n(C)c4)c(C(C)C)c3c2)CC1` [Example 349, 5-(3-isopropyl-5-(1-(2-methoxyethyl)piperidin-4-yl)-1H-indol-2-yl)-1,6′-dimethyl-[3,3′-bipyridin]-2(1H)-one], the IC50 in experiment [1] was 14.5 nM; in experiment [2], 72.6 nM; in experiment [3], 782 nM.

On to `COc1cc(-c2[nH]c3ccc(C4CCN(CC(C)(C)O)CC4)cc3c2C(C)C)c(C)n(C)c1=O` [Example 318, 5-(5-(1-(2-hydroxy-2-methylpropyl)piperidin-4-yl)-3-isopropyl-1H-indol-2-yl)-3-methoxy-1,6-dimethylpyridin-2(1H)-one], for which the values for the IC50 in experiment [1], in experiment [2] and in experiment [3] were 361 nM, 22.3 nM and 3430 nM, respectively.

In the case of `CNC(=O)CN1CCC(c2ccc3[nH]c(-c4cc(C#N)c(=O)n(C)c4C)c(C(C)C)c3c2)CC1` [Example 144, 2-(4-(2-(5-cyano-1,2-dimethyl-6-oxo-1,6-dihydropyridin-3-yl)-3-isopropyl-1H-indol-5-yl)piperidin-1-yl)-N-methylacetamide], the IC50 in experiment [1] came out at 59.9 nM; in experiment [2] it was 4.7 nM; in experiment [3] it was 11400 nM.

With `CCCN1CCC(c2ccc3[nH]c(-c4cc(-c5cccnc5)c(=O)n(C)c4)c(C(C)C)c3c2)CC1` [Example 245, 5-(3-isopropyl-5-(1-propylpiperidin-4-yl)-1H-indol-2-yl)-1-methyl-[3,3′-bipyridin]-2(1H)-one], the IC50 in experiment [1] turned out to be 7.3 nM; in experiment [2] it was 2 nM; in experiment [3], 851 nM.

On to `CC(C)c1c(-c2cc(-c3cccc(C#N)c3)c(=O)n(C)c2)[nH]c2ccc(C3CCNCC3)cc12` [Example 56, 3-(5-(3-isopropyl-5-(piperidin-4-yl)-1H-indol-2-yl)-1-methyl-2-oxo-1,2-dihydropyridin-3-yl)benzonitrile], for which the half-maximal inhibitory concentration (IC50) in experiment [1] came to 13.7 nM; in experiment [2] it was 49 nM; in experiment [3], 408 nM.

On to `CC(C)c1c(-c2cc(-c3cccnc3)c(=O)n(C)c2)[nH]c2ccc(C3CCNCC3)cc12` [Example 50, 5-(3-isopropyl-5-(piperidin-4-yl)-1H-indol-2-yl)-1-methyl-[3,3′-bipyridin]-2(1H)-one], for which the IC50 in experiment [1] is 6.8 nM; in experiment [2] it was 7.7 nM; in experiment [3], 411 nM.

For the molecule `Cc1cc(-c2[nH]c3ccc(C4CCN(C(=O)CN(C)C)CC4)cc3c2C(C)C)nn(C)c1=O` [Example 294, 6-(5-(1-(dimethylglycyl)piperidin-4-yl)-3-isopropyl-1H-indol-2-yl)-2,4-dimethylpyridazin-3(2H)-one], the figures for the IC50 in experiment [1], in experiment [2] and in experiment [3] were 12.5 nM, 16.9 nM and 3320 nM, respectively.

For `CNC(=O)CN1CCC(c2ccc3[nH]c(-c4cc(C)c(=O)n(CC(C)C)c4)c(C(C)C)c3c2)CC1` [Example 161, 2-(4-(2-(1-isobutyl-5-methyl-6-oxo-1,6-dihydropyridin-3-yl)-3-isopropyl-1H-indol-5-yl)piperidin-1-yl)-N-methylacetamide], the IC50 came out at 50.5 nM in experiment [1], 239 nM in experiment [2] and 8730 nM in experiment [3].

For the molecule `Cc1c(-c2[nH]c3ccc(C4CCNCC4)cc3c2C(C)C)cc(Cl)c(=O)n1C` [Example 33, 3-chloro-5-(3-isopropyl-5-(piperidin-4-yl)-1H-indol-2-yl)-1,6-dimethylpyridin-2(1H)-one], the IC50 in experiment [1] was found to be 16.1 nM; in experiment [2], 12.6 nM; in experiment [3] it was 922 nM.

With `Cc1cc(-c2[nH]c3ccc(C4CCN(CCCC(F)(F)F)CC4)cc3c2C(C)C)cn(CC(C)C)c1=O` [Example 110, 1-isobutyl-5-(3-isopropyl-5-(1-(4,4,4-trifluorobutyl)piperidin-4-yl)-1H-indol-2-yl)-3-methylpyridin-2(1H)-one], the 50% inhibitory concentration (IC50) in experiment [1] was 56.1 nM; in experiment [2] it was 163 nM; in experiment [3], 5260 nM.

For the molecule `CNCCN1CCC(c2ccc3[nH]c(-c4ccc(=O)n(C)c4)c(C(C)C)c3c2)CC1` [Example 172, 5-(3-isopropyl-5-(1-(2-(methylamino)ethyl)piperidin-4-yl)-1H-indol-2-yl)-1-methylpyridin-2(1H)-one], the IC50 in experiment [1] was found to be 29.9 nM; in experiment [2], 6.9 nM; in experiment [3] it was 151 nM.

Take `CC(C)c1c(-c2ccc(=O)n(C)c2)[nH]c2ccc(C3CCN(C4COC4)CC3)cc12` [Example 179, 5-(3-isopropyl-5-(1-(oxetan-3-yl)piperidin-4-yl)-1H-indol-2-yl)-1-methylpyridin-2(1H)-one]: the IC50 in experiment [1] came to 95.1 nM; in experiment [2], 28.8 nM; in experiment [3], 3930 nM.

For the origin of these results see US11447466B2, “Substituted indole compounds useful as inhibitors of TLR7/8/9” (BRISTOL-MYERS SQUIBB COMPANY, priority 2017, dated 2022).
